For data set [1], the system named is HeLa cells. Description: Protective effects on HeLa cells under H2O2-induced oxidative stress (CCK-8 viability). Format: cell-based, human. The procedure:
Next, the protective effects of compound RAH393 on cultured HeLa cells which were under oxidative stress were examined. A population of cells (>6×10^6 cells/mL as determined with a hemocytometer) was diluted with FBS-free DMEM:F12-K, 1:1, 1% penicillin-streptomycin, and 1% L-glutamine to give a final concentration of 50,000 cells/mL. To a 96-well plate was added 100 μL of cell media solution resulting in a total of 5 k cells per well. Plates were then incubated at 37° C. in an atmosphere of 5% CO2 and 95% humidified air for 24 h. Confluent cells were then pre-incubated in FBS-free media with compound RAH393 (or compound 5) (200 μM) for 1 h followed by treatment with H2O2 (200 μM) for an additional 1 h incubation period. Control wells with H2O2 alone (200 μM) were also evaluated on the same plate. After a total incubation period of 2 h, cell contents were then replaced with 100 μL of fresh FBS-free media with 10% CCK-8. Cells were then incubated for 3 h at 37° C. and cell viability was assessed by measuring the resulting absorbance at 450 nm using a 96-well plate reader (BioTek SYNERGY-HTX multi-mode reader, Winooski, Vt.).

Data set [2] can be described thus: Rate of coumarin release from compound 1a with H2O2 (fluorescence, plate reader). Format: physicochemical. The settings on record: 20 μM compound 1a, 1000 μM H2O2, PBS pH 7.4, 37° C. The procedure: Referring to FIG. 2A, initially appending a coumarin ester to the H2O2-responsive scaffold of compound 1a, it was hypothesized that the release of payload, in response to H2O2, could be monitored via fluorescence spectroscopy while recording the resulting increase in fluorescence intensity upon excitation at 7-hydroxycoumarin's λmax. Therefore, to initially assess the reactivity of the scaffold towards peroxides, compound 1a (20 μM) and H2O2 (1000 μM) was incubated in PBS buffer (pH 7.4) at 37° C. Specifically, immediately prior to use, a 5 mM stock solution of hydrogen peroxide was prepared in freshly degassed 1× PBS buffer (pH 7.4) using reagent grade H2O2 (30% solution). A 200 μM stock solution of probe compound 1a was prepared in 200-proof ethanol. The rate of coumarin release was measured using concentrations of 20 μM compound 1a and 1000 μM H2O2 by adding 30 μL of the probe stock solution, 60 μL of hydrogen peroxide stock solution and 210 μL of PBS buffer (pH 7.4) to each well of a 96 well plate. The plate was inserted into a 96-well plate reader (BioTek SYNERGY-HTX hybrid multi-mode reader, Winooski, Vt.), heated to 37° C., and agitated to ensure homogeneity. The plate was read continuously using a 360/40 nm fluorescence filter and values were recorded as the mean+/−STDEV from three experiments.
To further establish the proposed mechanistic pathway, lactone compound 3 (see FIG. 2A) was isolated and characterized as a definitive byproduct of this transformation. […] Compound 3 was formed as described below.

Data set [3] in a line: Turn-on fluorescence response of compounds 1a, 1b, 1c in PBS buffer alone and with H2O2. The settings on record: for turn-on fluorescence response towards H2O2 (in words) / fluorescence (ex: 330 nm, em: 452 nm), in the presence of 1 mM H2O2 / fluorescence (ex: 330 nm, em: 452 nm), PBS Buffer alone: 20 μM probe; for turn-on fluorescence response towards H2O2 (in words): 1 mM H2O2 vs PBS alone, 3 h; for fluorescence (ex: 330 nm, em: 452 nm), in the presence of 1 mM H2O2 / fluorescence (ex: 330 nm, em: 452 nm), PBS Buffer alone: PBS pH 7.4, 37° C., 180 min; for fluorescence (ex: 330 nm, em: 452 nm), PBS Buffer alone: no H2O2. Format: physicochemical. On the procedure:
Stock solutions of each probe (compounds 1a, 1b, 1c) at 222.2 μM were prepared in 200-proof ethanol. In addition, a 100 mM hydrogen peroxide stock solution was prepared in freshly degassed 1× PBS buffer (pH 7.4) immediately prior to use. Each reaction vial was prepared using 21.6 mL of PBS buffer, 2160 μL of compound 1a (or compound 1b or 1c) stock solution, and 240 μL of 100 mM hydrogen peroxide stock solution to give final concentrations of 20 μM of compound 1a (or compound 1b or 1c) and 1 mM of hydrogen peroxide. A control sample was prepared using 2160 μL of compound 1a (or 1b or 1c) stock solution in ethanol and diluted with 21.84 mL of freshly degassed 1× PBS buffer to give a final concentration of 20 μM of compound 1a (or 1b or 1c). The reaction and control vials were heated to 37° C. and agitated with a stir bar. At 180 min, 4 mL aliquots were transferred from reaction and control vials to individual quartz cuvettes. Fluorescence measurements (ex: 330 nm, em: 452 nm) were recorded as the mean+/−STDEV from three experiments. Referring to FIG. 3, the results for each of compounds 1a, 1b, and 1c was as follows—(1a): (1) PBS Buffer alone: 3.85+/−0.58; (2) In the presence of 1 mM H2O2: 97.01+/−12.97. (1b): (1) PBS Buffer alone: 0.55+/−0.27; (2) In the presence of 1 mM H2O2: 8.14+/−3.13. (1c): (1) PBS Buffer alone: 102.35+/−0.73; (2) In the presence of 1 mM H2O2: 129.54+/−0.55.

Data set [4] has as its system HeLa cells. Put plainly: Cytotoxicity in HeLa cells (phosphatase assay). Format: cell-based, human. Conditions: various concentrations, 5 h incubation. The procedure: First, compound RAH393 and lactone compound 3 were tested for cytotoxicity in HeLa cells. A population of cells (>6×10^6 cells/mL as determined with a hemocytometer) was diluted with FBS-free DMEM:F12-K, 1:1, 1% penicillin-streptomycin, and 1% L-glutamine to give a final concentration of 50,000 cells/mL. To a 96-well plate was added 100 μL of cell media solution resulting in a total of 5 k cells per well. Plates were then incubated at 37° C. in an atmosphere of 5% CO2 and 95% humidified air for 24 h. Fresh culture media (100 μL) was then added to each well of cells resulting in 200 μL of media per well followed by the addition of compound RAH393 or compound 3 at various concentrations (20 mM stock in biological-grade DMSO, resulting in no more than 1% DMSO per well). After incubating for 5 h, a phosphatase assay was used to establish cell viability as follows: Media was removed from each well and replaced with 100 μL of phosphatase solution (100 mg of phosphatase substrate, in 30 mL of 0.1 M NaOAc, pH 5.5, 0.1% Triton X-100 buffer). Following an incubation period of 30 min, 50 μL of 0.10 M NaOH was added to each well and viability was assessed spectrophotometrically at 405 nm using a 96-well plate reader (BioTek SYNERGY-HTX multi-mode reader, Winooski, Vt.). Assays were performed in triplicate and presented as the mean+/−STDEV.

The nature of data set [5]: Persulfide release from compounds 4a and 4b with H2O2 monitored by fluorescence. Format: physicochemical. Conditions: 20 μM compound; for change of relative fluorescence intensity over time with H2O2 (in words): 200 μM H2O2, PBS pH 7.4, 37° C., 3 hours. The procedure: Referring to FIGS. 6A and 6B, compounds 4a and 4b (20 μM) were exposed to H2O2 (200 μM) in PBS buffer (pH 7.4) at 37° C. and the resulting fluorescence intensity was monitored over a period of 3 hours. Immediately prior to use, a 200 μM stock solutions of compound 4a and compound 4b were prepared in cell-grade dimethylsulfoxide (DMSO), and a 200 μM stock of cetyltrimethylammonium bromide (CTAB) was prepared in PBS buffer (pH 7.4). Next, a 2 mM hydrogen peroxide stock solution was prepared by diluting 30% hydrogen peroxide in freshly degassed PBS Buffer (pH 7.4). 30 μL of compound 4a (or compound 4b) was then added to a 96 well plate and diluted with 90 μL of PBS buffer and 150 μL of the CTAB stock solution. The assay was then initiated by the addition of 30 μL, of the 2 mM hydrogen peroxide stock solution rendering a final concentration of 20 μM for compound 4a (or compound 4b), 200 μM of hydrogen peroxide, and 100 μM of CTAB. The control reactions without peroxide were conducted by adding 30 μL of the 200 μM stock of compound 4a to a 96 well plate and diluting with 120 μL of PBS buffer and 150 μL of 200 μM CTAB to make a final concentration of 20 μM of compound 4a and 100 μM of CTAB. The plate was inserted into a 96-well plate reader (BioTek SYNERGY-HTX multi-mode reader, Winooski, Vt.) heated to 37° C., and agitated to ensure homogeneity. The plate was read continuously using a 360/40 nm fluorescence filter and values were recorded as the mean+/−STDEV from three experiments.

A short description of data set [6]: DNFB trapping of released persulfide, LCMS (validation as ROS-activated persulfide donor). Format: physicochemical. Conditions: 200 μM compound, 1 mM DNFB, 1 mM H2O2, ammonium bicarbonate buffer, room temperature. The procedure: Initially, 5 mM stock solutions of compound RAH393, compound 5, and 2,4-dinitrofluorobenzene (DNFB) were prepared in 200-proof ethanol. In addition, a 100 mM stock solution of hydrogen peroxide in ammonium bicarbonate buffer (1 mM, pH 7.0) was prepared immediately prior to use. To a conical vial containing 1500 μL of 1M ammonium bicarbonate was then added 80 μL of the 5 mM stock of compound RAH393 (or control compound 5), 400 μL of the 5 mM DNFB stock, and 20 μL of 100 mM hydrogen peroxide giving a final concentrations of 200 μM compound RAH393 (or compound 5), 1 mM DNFB, and 1 mM H2O2. At the designated timepoints, a 100 μL aliquot of the room-temperature reaction was diluted with 900 μL of HPLC-grade methanol with 0.1% formic acid for analysis. 75 μL of the resultant solution was then injected onto C18 reverse phase column (Agilent Technologies, SB-C18 Analytical HPLC Col. 4.6×150) and eluted with HPLC-grade methanol (0.1% formic acid) and HPLC-grade water (0.1% formic acid) at a flow rate of 200 μL/min using the following gradient: 0-2 min, 90:10 water:methanol; 2-8 min, 40:60 water:methanol; 8-30 min, 10:90 water:methanol; 30-40 min, 5:95 water:methanol. Retention times of lactone compound 3 (25.0 min), compound RAH393 (35.6 min), compound 5 (27.7 min), and DNFB (16.5 min) were independently validated. When this assay was run using compound RAH393, in addition to compound 7 (21.7 min), the tri- and tetrasulfides of N-acetylcysteamine were also present (14.1 min and 16.2 min, respectively), further confirming persulfide release from compound RAH393.

What is called cell viability is the share of living cells, or the viability signal relative to a control.

As for `OO` [H2O2, hydrogen peroxide, reference compound], the cell viability in data set [1] (200 μM H2O2 alone, 1 hour) was determined as 33%.
In the case of `CC(C)(Cc1ccccc1B1OC(C)(C)C(C)(C)O1)C(=O)Oc1ccc2ccc(=O)oc2c1` [compound 1a], in data set [2], the “time at which fluorescence intensity reached a maximum (complete release of coumarin reporter)” value is on record as “roughly 1 h”. In addition, in data set [2] (pseudo first-order), the kobs was found to be 0.024 min⁻¹. In data set [2] (PBS buffer with 1000 μM H2O2, pseudo first-order, read-out: half-life (t1/2) of reaction with H2O2), the half-life at 20 μM worked out at 29.3 min. Further, in data set [3], the “turn-on fluorescence response towards H2O2 (in words)” value is listed as “selective turn-on fluorescence response towards H2O2”; the “fluorescence (ex: 330 nm, em: 452 nm), in the presence of 1 mM H2O2” value (“fluorescence … of 1 mM H2O2” below) is recorded as 97.01+/−12.97; the “fluorescence (ex: 330 nm, em: 452 nm), PBS Buffer alone” value is 3.85+/−0.58.
For the molecule `CC(C)(Cc1ccccc1)C(=O)Oc1ccc2ccc(=O)oc2c1` [compound 1b], in data set [3], the “turn-on fluorescence response towards H2O2 (in words)” value was “no turn-on response”; the “fluorescence … of 1 mM H2O2” value is recorded as 8.14+/−3.13; the “fluorescence (ex: 330 nm, em: 452 nm), PBS Buffer alone” value was 0.55+/−0.27.
With `CC1(C)OB(c2ccccc2CCC(=O)Oc2ccc3ccc(=O)oc3c2)OC1(C)C` [compound 1c], in data set [3], the “fluorescence … of 1 mM H2O2” value was 129.54+/−0.55 and the “fluorescence (ex: 330 nm, em: 452 nm), PBS Buffer alone” value was 102.35+/−0.73. Moreover, the “susceptibility to hydrolysis (in words)” value in data set [3] (PBS buffer alone, pH 7.4, 37° C.) was “highly susceptible to hydrolysis”.
As to `CC1(C)Cc2ccccc2OC1=O` [compound 3], the “cytotoxicity toward HeLa cells (in words)” value in data set [4] is “neither compound RAH393 nor lactone compound 3 were toxic”.
As to `CC(C)(Cc1ccccc1B1OC(C)(C)C(C)(C)O1)C(=O)SSc1ccccc1C(=O)Oc1ccc2ccc(=O)oc2c1` [compound 4a], the “kobs (pseudo first-order rate constant)” value in data set [5] (200 μM H2O2, 100 μM CTAB, PBS pH 7.4, 37° C.) worked out at 0.012 min⁻¹. The “change of relative fluorescence intensity over time with H2O2 (in words)” value in data set [5] was “significantly increase over time”. The “fluorescence profile in PBS buffer alone (in words)” value in data set [5] (no H2O2, 100 μM CTAB, 37° C.) was “nearly identical fluorescence profile to that of compound 4b”. Also, the half-life at 20 μM in data set [5] (PBS buffer with 200 μM H2O2 and 100 μM CTAB, 200 μM H2O2, 100 μM CTAB, PBS pH 7.4, 37° C., pseudo first-order, read-out: half-life of reaction with H2O2 (persulfide release)) was found to be 60.5 min.
For the molecule `CC(C)(Cc1ccccc1)C(=O)SSc1ccccc1C(=O)Oc1ccc2ccc(=O)oc2c1` [compound 4b], the “change of relative fluorescence intensity over time with H2O2 (in words)” value in data set [5] is on record as “trivial”.
With `CC(=O)NCCSSC(=O)C(C)(C)Cc1ccccc1` [compound 5], in data set [1] (pre-treatment 200 μM compound 1 h, then 200 μM H2O2 1 h), the “protection against H2O2-induced oxidative stress (in words)” value is on record as “no protection”. The “formation of trapped disulfide compound 7 (persulfide release), LCMS” value in data set [6] is recorded as “unsuccessful in yielding compound 7”.

Values taken from patent US20230227477A1, “COMPOUNDS FOR SENSING REACTIVE OXYGEN SPECIES AND METHODS FOR USING THE SAME” (WAKE FOREST UNIVERSITY HEALTH SCIENCES, priority 2020, published 2023).
